Experiments:
[1] = biological target: Glutamate receptor ionotropic, AMPA (Rattus norvegicus) (UniProt P19491+P19492+P19493+P19490); experiment: Binding affinity for Ionotropic glutamate receptor AMPA was determined by the ability to displace [3H]AMPA in rat cortical membranes at 10 uM; type: cell membranes
[2] = biological target: Glutamate receptor ionotropic, NMDA 1 (Rattus norvegicus) (UniProt P35439); experiment: Binding affinity for glycine site-NMDA receptor was determined by the ability to displace [3H]glycine in rat cortical membranes at 10 uM; type: cell membranes
[3] = biological target: Glutamate receptor ionotropic, NMDA 1 (Rattus norvegicus, UniProt P35439); experiment: Binding affinity for glycine site-NMDA receptor was determined by the ability to displace [3H]glycine in rat cortical membranes; type: cell membranes
[4] = biological target: Glutamate receptor ionotropic, AMPA (Rattus norvegicus, UniProt P19490+P19491+P19492+P19493)
[5] = biological target: Glutamate receptor ionotropic, NMDA 1 (Rattus norvegicus) (UniProt P35439); experiment: Tested for the ability to displace [3H]glycine in rat cortical membranes at a concentration of 10 uM; type: cell membranes

Displacement [1]	Displacement [2]	Ki [3]	Ki [4]	Displacement [5]	Structure (SMILES)
28.5%	58.2%	–	–	–	Cc1cc2[nH]c(=O)c(=O)n(CCC(=O)O)c2cc1C
52.4%	49.6%	–	–	–	Cc1cc2[nH]c(=O)c(=O)n(Cc3nn[nH]n3)c2cc1C
58.6%	58.8%	–	–	–	O=c1[nH]c2cc(Cl)c(Cl)cc2n(Cc2nn[nH]n2)c1=O
–	–	5.28 µM	1.21 µM	–	Cc1cc2[nH]c(=O)c(=O)n(CP(=O)(O)O)c2cc1C
5.2%	–	–	–	2.9%	Cc1cc2[nH]c(=O)c(=O)n(CC(=O)Nc3ccccc3)c2cc1C
–	–	0.11 µM	2.1 µM	–	O=C(O)Cn1c(=O)c(=O)[nH]c2cc(Cl)c(Cl)cc21
–	29.6%	–	8 µM	–	Cc1cc2[nH]c(=O)c(=O)n(CCCC(=O)O)c2cc1C
13.9%	2.6%	–	–	–	Cc1cc2[nH]c(=O)c(=O)n(C(C)C(=O)O)c2cc1C (centres undefined)
28%	48%	–	–	–	Cc1ccc(S(=O)(=O)NC(=O)Cn2c(=O)c(=O)[nH]c3cc(C)c(C)cc32)cc1
49%	36%	–	–	–	Cc1cc2[nH]c(=O)c(=O)n(CC(=O)NS(C)(=O)=O)c2cc1C
4.6%	–	–	–	8%	COC(=O)Cn1c(=O)cnc2cc(C)c(C)cc21
–	–	13.8 µM	0.7 µM	–	Cc1cc2[nH]c(=O)c(=O)n(CC(=O)O)c2cc1C
